# Structures can show the parent of a compound that is named as a salt.
# Legend:
# [1] = system: L1210 leukemia; assay: S.C. implanted L1210 leukemia in mice (CD2F1); type: in vivo
# Text: ^a Experimental formulation of mitindomide was used (NaOH + manitol).
# [2] = Water solubility; type: physicochemical; settings: water
# [3] = system: L1210 leukemia; assay: IP implanted L1210 leukemia in mice (CD2F1); type: in vivo
# [4] = system: P388; assay: IP P388, Days 1-9 (NCI murine test system); type: in vivo
# Procedure: Anti-tumor or anti-neoplastic activity of the novel derivatives of the present invention is determined by using the murine test system for screening anti-cancer compounds as standardized by the National Cancer Institute, Bethesda, Md., U.S.A., and described in Cancer Chemotherapy Reports, 3 (2) 1-103 (1972) which publication is incorporated herein by reference.
# It is noted that although the intraperitoneal mode of administration of the novel derivatives is preferred, other modes of parenteral administration, e.g. subcutaneous, intravenous, etc., are, of course, possible and included within the purview of this invention. Similarly, although water has been used as a vehicle for the administration of the compounds of the present invention, other pharmaceutically acceptable vehicles, e.g. saline, buffers, and other aqueous media may also be used for the administration of these compounds together with adjuvants, agents or additives commonly employed in the preparation of pharmaceutical compositions. Examples of such agents, additives and adjuvants that may be employed are listed in Instruction 14, Screening Data Summary Interpretation and Outline of Clinical Screen. Drug Evaluation Branch, NCI. and are incorporated herein by reference.
# [5] = 21.6 mg/kg ip days 1-9, Expt. 1
# [6] = 21.6 mg/kg ip days 1-9, Expt. 2
# [7] = 36.0 mg/kg ip days 1-9, Expt. 1
# [8] = 36.0 mg/kg ip days 1-9, Expt. 2
# [9] = 60.0 mg/kg ip days 1-9, Expt. 1
# [10] = 60.0 mg/kg ip days 1-9, Expt. 2
# [11] = 100.0 mg/kg ip days 1-9, Expt. 1
# [12] = 100.0 mg/kg ip days 1-9, Expt. 2
# [13] = 166.7 mg/kg ip days 1-9, Expt. 2
# [14] = 21.6 mg/kg IP days 1-9, Expt. 1
# [15] = 21.6 mg/kg IP days 1-9, Expt. 2
# [16] = 21.6 mg/kg IP days 1-9, Expt. 3
# [17] = 166.7 mg/kg IP days 1-9, Expt. 1
# [18] = 166.7 mg/kg IP days 1-9, Expt. 3
# [19] = 24.8 mg/kg ip days 1-9, Expt. 1
# [20] = 24.8 mg/kg ip days 1-9, Expt. 2
# [21] = 41.3 mg/kg ip days 1-9, Expt. 1
# [22] = 41.3 mg/kg ip days 1-9, Expt. 2
# [23] = 68.8 mg/kg ip days 1-9, Expt. 1
# [24] = 68.8 mg/kg ip days 1-9, Expt. 2
# [25] = 114.7 mg/kg ip days 1-9, Expt. 1
# [26] = 24.8 mg/kg IP days 1-9, Expt. 1
# [27] = 24.8 mg/kg IP days 1-9, Expt. 2
# [28] = 24.8 mg/kg IP days 1-9, Expt. 3
# [29] = 41.3 mg/kg IP days 1-9, Expt. 1
# [30] = 41.3 mg/kg IP days 1-9, Expt. 2
# [31] = 41.3 mg/kg IP days 1-9, Expt. 3
# [32] = 68.8 mg/kg IP days 1-9, Expt. 1
# [33] = 68.8 mg/kg IP days 1-9, Expt. 2
# [34] = 68.8 mg/kg IP days 1-9, Expt. 3
# [35] = 114.7 mg/kg IP days 1-9, Expt. 1
# [36] = 114.7 mg/kg IP days 1-9, Expt. 2
# [37] = 114.7 mg/kg IP days 1-9, Expt. 3
smiles,measurement,setting,value
"CN1CCN(CN2C(=O)C3C4C=CC(C3C2=O)C2C3C(=O)N(CN5CCN(C)CC5)C(=O)C3C42)CC1 (stereo not drawn) [Example 3, 4,8-Ethenopyrrolo[3'4':3,4]cyclobut[1,2-f]isoindole-1,3,5,7(2H,6H)-tetrone,3a,3b,4,4a,7a,8,8a,8b-octahydro-2,6-bis(N-methylpiperazinomethyl)]",ILS,[1]; [5],6%
same,MST,[1]; [5],8.7 days
same,Wt. Change,[1]; [5],-0.3 g
same,ILS,[1]; [6],10%
same,MST,[1]; [6],11.8 days
same,Wt. Change,[1]; [6],0.2 g
same,ILS,[1]; [7],13%
same,MST,[1]; [7],9.3 days
same,Wt. Change,[1]; [7],-1.0 g
same,ILS,[1]; [8],5%
same,MST,[1]; [8],11.3 days
same,Wt. Change,[1]; [8],-0.4 g
same,ILS,[1]; [9],70%
same,MST,[1]; [9],14.0 days
same,Wt. Change,[1]; [9],-4.2 g
same,ILS,[1]; [10],14%
same,MST,[1]; [10],12.3 days
same,Wt. Change,[1]; [10],-0.7 g
same,ILS,[1]; [11],143%
same,MST,[1]; [11],20.0 days
same,Wt. Change,[1]; [11],-5.3 g
same,ILS,[1]; [12],72%
same,MST,[1]; [12],18.5 days
same,Wt. Change,[1]; [12],-3.1 g
same,ILS,[1]; [13],133%
same,MST,[1]; [13],25.0 days
same,Wt. Change,[1]; [13],-4.9 g
same,H2O Sol. % (g per 100 ml H2O),[2],1.5 % (g per 100 ml H2O)
same,ILS,[3]; [14],4%
same,MST,[3]; [14],9.1 days
same,Wt. Change,[3]; [14],1.9 g
same,ILS,[3]; [15],3%
same,MST,[3]; [15],8.3 days
same,Wt. Change,[3]; [15],0.7 g
same,ILS,[3]; [16],9%
same,MST,[3]; [16],9.0 days
same,Wt. Change,[3]; [16],0.2 g
same,ILS,"[3]; 36 mg/kg IP days 1-9, Expt. 1",5%
same,MST,"[3]; 36 mg/kg IP days 1-9, Expt. 1",9.2 days
same,Wt. Change,"[3]; 36 mg/kg IP days 1-9, Expt. 1",1.7 g
same,ILS,"[3]; 36 mg/kg IP days 1-9, Expt. 2",12%
same,MST,"[3]; 36 mg/kg IP days 1-9, Expt. 2",9.0 days
same,Wt. Change,"[3]; 36 mg/kg IP days 1-9, Expt. 2",-0.5 g
same,ILS,"[3]; 36 mg/kg IP days 1-9, Expt. 3",9%
same,MST,"[3]; 36 mg/kg IP days 1-9, Expt. 3",9.0 days
same,Wt. Change,"[3]; 36 mg/kg IP days 1-9, Expt. 3",0.2 g
same,ILS,"[3]; 60 mg/kg IP days 1-9, Expt. 1",37%
same,MST,"[3]; 60 mg/kg IP days 1-9, Expt. 1",12.0 days
same,Wt. Change,"[3]; 60 mg/kg IP days 1-9, Expt. 1",-0.4 g
same,ILS,"[3]; 60 mg/kg IP days 1-9, Expt. 2",75%
same,MST,"[3]; 60 mg/kg IP days 1-9, Expt. 2",14.0 days
same,Wt. Change,"[3]; 60 mg/kg IP days 1-9, Expt. 2",-4.4 g
same,ILS,"[3]; 60 mg/kg IP days 1-9, Expt. 3",46%
same,MST,"[3]; 60 mg/kg IP days 1-9, Expt. 3",12.0 days
same,Wt. Change,"[3]; 60 mg/kg IP days 1-9, Expt. 3",-1.3 g
same,ILS,"[3]; 100 mg/kg IP days 1-9, Expt. 1",37%
same,MST,"[3]; 100 mg/kg IP days 1-9, Expt. 1",12.0 days
same,Wt. Change,"[3]; 100 mg/kg IP days 1-9, Expt. 1",-2.9 g
same,ILS,"[3]; 100 mg/kg IP days 1-9, Expt. 2",141%
same,MST,"[3]; 100 mg/kg IP days 1-9, Expt. 2",19.3 days
same,Wt. Change,"[3]; 100 mg/kg IP days 1-9, Expt. 2",-4.8 g
same,ILS,"[3]; 100 mg/kg IP days 1-9, Expt. 3",95%
same,MST,"[3]; 100 mg/kg IP days 1-9, Expt. 3",16.0 days
same,Wt. Change,"[3]; 100 mg/kg IP days 1-9, Expt. 3",-3.1 g
same,MST,[3]; [17],6.3 days
same,Wt. Change,[3]; [17],-5.2 g
same,ILS,[3]; [18],156%
same,MST,[3]; [18],21.0 days
same,Wt. Change,[3]; [18],-5.2 g
same,solubility of dosed preparation,"[3]; Table 4 Expt. 1, vehicle water, 60 mg/kg and higher",insoluble
"CN1CCN(CN2C(=O)C3C4C=CC(C3C2=O)C2C3C(=O)N(CN5CCN(C)CC5)C(=O)C3C42)CC1 (stereo not drawn) [Example 4, 4,8-Ethenopyrrolo[3',4':3,4]cyclobut[1,2-f]isoindole-1,3,5,7(2H,6H)-tetrone,3a,3b,4,4a,7a,8,8a,8b-octahydro-2,6-bis(N-methylpiperazinomethyl)di-hydrochloride]",T/C,"[4]; IP P388, Days 1-9, dose 68.8",172
same,ILS,[1]; [19],18%
same,MST,[1]; [19],9.7 days
same,Wt. Change,[1]; [19],-0.2 g
same,ILS,[1]; [20],12%
same,MST,[1]; [20],12.0 days
same,Wt. Change,[1]; [20],0.3 g
same,ILS,[1]; [21],50%
same,MST,[1]; [21],12.3 days
same,Wt. Change,[1]; [21],-1.6 g
same,ILS,[1]; [22],21%
same,MST,[1]; [22],13.0 days
same,Wt. Change,[1]; [22],-1.5 g
same,ILS,[1]; [23],74%
same,MST,[1]; [23],14.3 days
same,Wt. Change,[1]; [23],-4.2 g
same,ILS,[1]; [24],58%
same,MST,[1]; [24],17.0 days
same,Wt. Change,[1]; [24],-2.9 g
same,ILS,[1]; [25],135%
same,MST,[1]; [25],19.3 days
same,Wt. Change,[1]; [25],-4.7 g
same,Wt. Change,"[1]; 114.7 mg/kg ip days 1-9, Expt. 2",-4.0 g
same,Wt. Change,"[1]; 191.2 mg/kg ip days 1-9, Expt. 2",-6.6 g
same,H2O Sol. % (g per 100 ml H2O),[2],10 % (g per 100 ml H2O)
same,ILS,[3]; [26],2%
same,MST,[3]; [26],8.9 days
same,Wt. Change,[3]; [26],2.5 g
same,ILS,[3]; [27],5%
same,MST,[3]; [27],8.4 days
same,Wt. Change,[3]; [27],0.8 g
same,ILS,[3]; [28],9%
same,MST,[3]; [28],9.0 days
same,Wt. Change,[3]; [28],0.3 g
same,ILS,[3]; [29],24%
same,MST,[3]; [29],10.8 days
same,Wt. Change,[3]; [29],1.4 g
same,ILS,[3]; [30],47%
same,MST,[3]; [30],11.8 days
same,Wt. Change,[3]; [30],-2.6 g
same,ILS,[3]; [31],34%
same,MST,[3]; [31],11.0 days
same,Wt. Change,[3]; [31],-1.5 g
same,ILS,[3]; [32],83%
same,MST,[3]; [32],16.0 days
same,Wt. Change,[3]; [32],-1.7 g
same,ILS,[3]; [33],78%
same,MST,[3]; [33],14.3 days
same,Wt. Change,[3]; [33],-4.1 g
same,ILS,[3]; [34],119%
same,MST,[3]; [34],18.0 days
same,Wt. Change,[3]; [34],-3.2 g
same,ILS,[3]; [35],3%
same,MST,[3]; [35],9.0 days
same,Wt. Change,[3]; [35],-2.6 g
same,ILS,[3]; [36],110%
same,MST,[3]; [36],16.8 days
same,Wt. Change,[3]; [36],-5.3 g
same,ILS,[3]; [37],143%
same,MST,[3]; [37],20.0 days
same,Wt. Change,[3]; [37],-4.6 g
same,Wt. Change,"[3]; 191.2 mg/kg IP days 1-9, Expt. 3",-7.1 g
"CC(=O)OCN1C(=O)C2C3C=CC(C2C1=O)C1C2C(=O)N(COC(C)=O)C(=O)C2C31 (stereo not drawn) [Example 8, 4,8-Ethenopyrrolo3',4':3,4cyclobut[1,2-f]isoindole-1,3,5,7(2H,6H)-tetrone,3a,3b,4,4a,7a,8a,8b-octahydro-2,6-bis(acetyloxymethyl)]",T/C,"[4]; IP P388, Days 1-9, dose 400",208
same,fraction printed in brackets behind T/C (not explained),"[4]; IP P388, Days 1-9, dose 400",1/5
same,solubility,[2]; read-out: H2O Sol. % (g per 100 ml H2O),1000 µg/mL
